Values quoted from earlier work as cited in patent EP2706070A1, “Combination treatments involving antibodies to human PCSK9” (SANOFI, priority 2012, dated 2014).

Experiments:
[1] = elimination (ezetimibe and its glucuronide: from plasma, after oral administration); cited from earlier work
LDL-C = conditions: ezetimibe 10 mg/day added to maximal dose of statins, genotype-confirmed hoFH; cited from earlier work

Q: For O=C(O)[C@H]1O[C@@H](Oc2ccc([C@@H]3[C@@H](CC[C@H](O)c4ccc(F)cc4)C(=O)N3c3ccc(F)cc3)cc2)[C@H](O)[C@@H](O)[C@@H]1O [ezetimibe-glucuronide], which half-life [1] is on record?
A: approximately 22 hours

Q: For O=C1[C@H](CC[C@H](O)c2ccc(F)cc2)[C@@H](c2ccc(O)cc2)N1c1ccc(F)cc1 [ezetimibe], which “total reduction of LDL-C levels” value (LDL-C) is on record?
A: 27%
